Measured values from US20250313544A1, “INHIBITORS OF GLUTATHIONE S-TRANSFERASE ZETA 1 (GSTZ1) AND METHODS OF USE” (H. LEE MOFFITT CANCER CENTER AND RESEARCH INSTITUTE, INC., priority 2022, published 2025).

System: H1792 LUAD cells
Assay: Chemical proteomics target profiling in live H1792 cells (label-free LC-MS/MS, comparison with control probe 22 and panel-wide cross-comparison)
Type: binding, human
Procedure: Cells were grown in 10 cm dishes to ˜90% confluence at the time of treatment. Cells were carefully washed twice with Dulbecco's phosphate buffered saline (DPBS) and replenished with fresh serum-free RPMI 1640 media containing indicated probes ([…]), competitors, or DMSO. Without competitors, cells were incubated with probes for 30 min at 37° C. and then exposed to 365 nm UV light for 15 min on ice. With competitors, cells were pre-treated with competitors for 30 min and photoactivated for 15 min. Probes were then added to cells for an additional 30 min incubation. For no UV experiments, cells were incubated for 15 min under ambient light. Cells were harvested in cold DPBS and pellets were washed with cold DPBS (2 X). Pellets were either directly processed or kept frozen at −80° C. until use. Cells pellets were lysed for 30 min in cold DPBS (100-300 uL) per culture dish supplemented with 1% NP-40, followed by sonication (5 pulses, 4 s on, 20 s off, output setting=4). Lysates were centrifuged at 20,817×g for 20 min, and supernatant (soluble proteome) was used for further processing. Protein concentrations were determined using Bradford assays.
Protein pellets were transferred to 5 mL microcentrifuge tubes and then resuspended in a freshly-prepared solution of proteomics-grade urea (320 μL, 6 M Urea in DPBS) containing 80 μL of 10% SDS and dissolved by sonication. To each solution, 4 mL DPBS was added (final conc: 0.2%, total volume) and incubated with pre-equilibrated NeutrAvidin agarose resin (100 μL 1:1 slurry, Pierce, Cat. 29201) for 2 hrs at ambient temperature on a rotator. The NeutrAvidin beads were collected by centrifugation (1,400×g, 2 min) and sequentially washed with 0.2% SDS in DPBS (2×2 mL), detergent-free DPBS (2×2 mL), and 50 mM ammonium bicarbonate (AMBIC, 2×2 mL). Beads were resuspended with 200 μL 50 mM AMBIC and incubated with TCEP 50 μL (100 mM in 50 mM AMBIC) for 30 min at 37° C. Iodoacetamide (50 μL of 200 mM in 50 mM AMBIC) was added and incubated for 30 min at ambient temperature. The beads were again washed with 2×1 mL 50 mM AMBIC and resuspended in 100 μL of fresh 50 mM AMBIC and treated with 2 μg of sequencing grade modified trypsin (Promega, #V5111) at 37° C. overnight. These samples were acidified with formic acid (final conc: 5%) and centrifuged (1,000×g, 2 min). The supernatant was collected and desalted through ZIPTIPs, and the desalted peptide mixture were dried in vacuum and reconstituted with HPLC buffer (2% acetonitrile, 0.1% formic acid) for LC-MS/MS analysis. Tryptic peptides of avidin were excluded from MS2 analysis to maximize detection of the protein targets (Table S7). Samples were analyzed using LC-MS/MS after being spiked with 50 fmol/uL PRTC standards (88320, Pierce Retention Time Calibration Mixture, Thermo Fisher, MA). A nanoflow ultra high performance liquid chromatograph and nanoelectrospray orbitrap mass spectrometer (RSLCnano and Q Exactive plus, Thermo) were used for LC-MS/MS. The sample was loaded onto a pre-column (C18 PepMap100, 2 cm length×100 μm ID packed with C18 reversed-phase resin, 5 μm particle size, 100 Å pore size) and washed for 8 minutes with aqueous 2% acetonitrile and 0.1% formic acid. Trapped peptides were eluted onto the analytical column, (C18 PepMap100, 25 cm length×75 μm ID, 2 μm particle size, 100 Å pore size, Thermo). A 120-minute gradient was programmed as: 95% solvent A (aqueous 2% acetonitrile+0.1% formic acid) for 8 minutes, solvent B (aqueous 90% acetonitrile+0.1% formic acid) from 5% to 38.5% in 90 minutes, then solvent B from 50% to 90% B in 7 minutes and held at 90% for 5 minutes, followed by solvent B from 90% to 5% in 1 minute and re-equilibration for 10 minutes using a flow rate of 300 nl/min. Spray voltage was 1900 V. Capillary temperature was 275° C. S lens RF level was set at 40. Top 16 tandem mass spectra were collected in a data-dependent manner. The resolution for MS and MS/MS were set at 70,000 and 17,500 respectively. […]

## C#CCCC1(CCC(=O)N2CCC(COc3nc4ccccc4nc3C)CC2)N=N1 [Probe 17, 3-(3-(but-3-yn-1-yl)-3H-diazirin-3-yl)-1-(4-(((3-methylquinoxalin-2-yl)oxy)methyl)piperidin-1-yl)propan-1-one]
Compared to control probe and probe panel
  prominent target protein predominantly enriched by the probe: GSTZ1
Many other enriched putative targets vs. negative control probe alone
  selectivity of probe for GSTZ1: should not be considered a selective probe for GSTZ1
